Results on 18 compounds are retold here after patent publication US20230040770A1, “HETEROCYCLIC COMPOUND AND USE THEREOF” (TAKEDA PHARMACEUTICAL COMPANY LIMITED, priority 2019, published 2023).

The test addresses T1, human orexin type 2 receptor (Homo sapiens, UniProt O43614).
T1 construct: expressed in transfected cells
T1 sequence (O43614 1-444): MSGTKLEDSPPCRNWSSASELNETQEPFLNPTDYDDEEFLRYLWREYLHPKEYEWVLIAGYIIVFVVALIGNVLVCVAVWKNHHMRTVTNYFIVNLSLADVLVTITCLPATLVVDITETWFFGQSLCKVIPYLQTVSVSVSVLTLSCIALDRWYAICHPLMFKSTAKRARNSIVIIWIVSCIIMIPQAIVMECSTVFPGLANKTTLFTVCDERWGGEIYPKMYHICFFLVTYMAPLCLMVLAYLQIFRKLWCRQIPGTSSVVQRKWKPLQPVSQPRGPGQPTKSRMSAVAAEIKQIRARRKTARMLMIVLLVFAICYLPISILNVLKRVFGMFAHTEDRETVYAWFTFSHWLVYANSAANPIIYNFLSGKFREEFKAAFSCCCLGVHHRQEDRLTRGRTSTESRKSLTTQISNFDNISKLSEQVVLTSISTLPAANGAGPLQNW
The test is described as follows: Measurement of orexin type 2 receptor agonist activity (calcium indicator fluorescence, CHO cells forcibly expressing human OX2 receptor). As to conditions: compound at 3 μM; 0% = DMSO, 100% = orexin A (human) 10 nM. The test is classed as cell-based. In a few lines: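 Agonist response normalised between vehicle (0%) and orexin A at 10 nM final (100%), from kinetic Fluo-4 calcium signals recorded for about 2 min after compound addition. Cells: stable human OX2R CHO clone, dye-loaded 30 min at 37 °C plus 30 min at room temperature.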
Take `O=C(N1CCC1)N1CC(F)(F)[C@H](NS(=O)(=O)C2CC2)[C@@H]1Cc1cccc(-c2cccc(F)c2)c1F` [Example 534, N-{(2S,3R)-1-(azetidine-1-carbonyl)-2-[(2,3′-difluoro[1,1′-biphenyl]-3-yl)methyl]-4,4-difluoropyrrolidin-3-yl}cyclopropanesulfonamide]: the “OX2R agonist activity (3 μM, %)” value is 98%.
With `CCS(=O)(=O)N[C@H]1[C@@H](F)CN(C(=O)C2CCO2)[C@H]1Cc1cccc(-c2cccc(C(F)F)c2)c1F` (stereo partly drawn) [Example 535, N-[(2S,3R,4S)-2-{[3′-(difluoromethyl)-2-fluoro[1,1′-biphenyl]-3-yl]methyl}-4-fluoro-1-(oxetane-2-carbonyl)pyrrolidin-3-yl]ethanesulfonamide] the figure was 102%; with `CCS(=O)(=O)N[C@H]1[C@@H](F)CN(C(=O)C2(O)CCC2)[C@H]1Cc1cccc(-c2cccc(C)c2)c1F` [Example 536, N-[(2S,3R,4S)-4-fluoro-2-[(2-fluoro-3′-methyl[1,1′-biphenyl]-3-yl)methyl]-1-(1-hydroxycyclobutane-1-carbonyl)pyrrolidin-3-yl]ethanesulfonamide], 98%; with `Cc1cccc(-c2cccc(C[C@H]3[C@@H](NS(=O)(=O)C4CC4)[C@@H](F)CN3C(=O)C3(O)CCC3)c2F)c1` [Example 537, N-[(2S,3R,4S)-4-fluoro-2-[(2-fluoro-3′-methyl[1,1′-biphenyl]-3-yl)methyl]-1-(1-hydroxycyclobutane-1-carbonyl)pyrrolidin-3-yl]cyclopropanesulfonamide], 100%.
The value for `Cc1cccc(-c2cccc(C[C@H]3[C@@H](NS(=O)(=O)C4CC4)[C@@H](F)CN3C(=O)N(C)C)c2F)c1` [Example 538, (2S,3R,4S)-3-[(cyclopropanesulfonyl)amino]-4-fluoro-2-[(2-fluoro-3′-methyl[1,1′-biphenyl]-3-yl)methyl]-N,N-dimethylpyrrolidine-1-carboxamide] was 106%; that for `Cc1cccc(-c2cccc(C[C@H]3[C@@H](NS(=O)(=O)N(C)C)C(F)(F)CN3C(=O)[C@H]3CCO3)c2F)c1F` [Example 539, N′-{(2S,3R)-2-[(2,2′-difluoro-3′-methyl[1,1′-biphenyl]-3-yl)methyl]-4,4-difluoro-1-[(2R)-oxetane-2-carbonyl]pyrrolidin-3-yl}-N,N-dimethylsulfuric diamide] was 101%.
For the compound `Cc1cc(F)cc(-c2cccc(C[C@H]3[C@@H](NS(=O)(=O)N(C)C)C(F)(F)CN3C(=O)[C@H]3CCO3)c2F)c1` [Example 540, N′-{(2S,3R)-2-[(2,3′-difluoro-5′-methyl[1,1′-biphenyl]-3-yl)methyl]-4,4-difluoro-1-[(2R)-oxetane-2-carbonyl]pyrrolidin-3-yl}-N,N-dimethylsulfuric diamide], the “OX2R agonist activity (3 μM, %)” value was determined as 100%.
The value for `CN(C)S(=O)(=O)N[C@@H]1[C@H](Cc2cccc(-c3cccc(F)c3)c2F)N(C(=O)[C@H]2CCO2)CC1(F)F` [Example 541, N′-{(2S,3R)-2-[(2,3′-difluoro[1,1′-biphenyl]-3-yl)methyl]-4,4-difluoro-1-[(2R)-oxetane-2-carbonyl]pyrrolidin-3-yl}-N,N-dimethylsulfuric diamide] was 100%; that for `Cc1cccc(-c2cccc(C[C@H]3[C@@H](NS(=O)(=O)C4CC4)[C@@H](F)CN3C(=O)N3CCC3)c2F)c1` [Example 543, N-{(2S,3R,4S)-1-(azetidine-1-carbonyl)-4-fluoro-2-[(2-fluoro-3′-methyl[1,1′-biphenyl]-3-yl)methyl]pyrrolidin-3-yl}cyclopropanesulfonamide] was 99%.
With `O=C(N1CCC1)N1C[C@H](F)[C@H](NS(=O)(=O)C2CC2)[C@@H]1Cc1cccc(-c2cc(F)cc(F)c2)c1F` [Example 544, N-{(2S,3R,4S)-1-(azetidine-1-carbonyl)-4-fluoro-2-[(2,3′,5′-trifluoro[1,1′-biphenyl]-3-yl)methyl]pyrrolidin-3-yl}cyclopropanesulfonamide] the figure was 90%; with `Cc1cccc(-c2cccc(C[C@H]3[C@@H](NS(=O)(=O)N(C)C)C(F)(F)CN3C(=O)N3CCC3)c2F)c1F` [Example 545, N′-{(2S,3R)-1-(azetidine-1-carbonyl)-2-[(2,2′-difluoro-3′-methyl[1,1′-biphenyl]-3-yl)methyl]-4,4-difluoropyrrolidin-3-yl}-N,N-dimethylsulfuric diamide], 93%; with `Cc1cc(F)cc(-c2cccc(C[C@H]3[C@@H](NS(=O)(=O)N(C)C)C(F)(F)CN3C(=O)N3CCC3)c2F)c1` [Example 546, N′-{(2S,3R)-1-(azetidine-1-carbonyl)-2-[(2,3′-difluoro-5′-methyl[1,1′-biphenyl]-3-yl)methyl]-4,4-difluoropyrrolidin-3-yl}-N,N-dimethylsulfuric diamide], 96%.
The value for `CN(C)S(=O)(=O)N[C@@H]1[C@H](Cc2cccc(-c3cccc(F)c3)c2F)N(C(=O)N2CCC2)CC1(F)F` [Example 547, N′-{(2S,3R)-1-(azetidine-1-carbonyl)-2-[(2,3′-difluoro[1,1′-biphenyl]-3-yl)methyl]-4,4-difluoropyrrolidin-3-yl}-N,N-dimethylsulfuric diamide] was 98%; that for `CN(C)S(=O)(=O)N[C@@H]1[C@H](Cc2cccc(-c3cc(F)cc(F)c3)c2F)N(C(=O)N2CCC2)CC1(F)F` [Example 548, N′-{(2S,3R)-1-(azetidine-1-carbonyl)-4,4-difluoro-2-[(2,3′,5′-trifluoro[1,1′-biphenyl]-3-yl)methyl]pyrrolidin-3-yl}-N,N-dimethylsulfuric diamide] was 94%; that for `CCS(=O)(=O)N[C@@H]1[C@H](Cc2cccc(-c3cccc(OC(F)F)c3)c2F)N(C(=O)C(C)C)CC1(F)F` [Example 549, N-[(2S,3R)-2-{[3′-(difluoromethoxy)-2-fluoro[1,1′-biphenyl]-3-yl]methyl}-4,4-difluoro-1-(2-methylpropanoyl)pyrrolidin-3-yl]ethanesulfonamide] was 94%.
Turning to `CCS(=O)(=O)N[C@@H]1[C@H](Cc2cccc(-c3cccc(OC(F)F)c3)c2F)N(C(=O)C2CC2)CC1(F)F` [Example 550, N-[(2S,3R)-1-(cyclopropanecarbonyl)-2-{[3′-(difluoromethoxy)-2-fluoro[1,1′-biphenyl]-3-yl]methyl}-4,4-difluoropyrrolidin-3-yl]ethanesulfonamide], the “OX2R agonist activity (3 μM, %)” value came out at 93%.
With `CCS(=O)(=O)N[C@@H]1[C@H](Cc2cccc(-c3cccc(OC(F)F)c3)c2F)N(C(=O)C23CC(C2)C3)CC1(F)F` [Example 551, N-[(2S,3R)-1-(bicyclo[1.1.1]pentane-1-carbonyl)-2-{[3′-(difluoromethxoy)-2-fluoro[1,1′-biphenyl]-3-yl]methyl}-4,4-difluoropyrrolidin-3-yl]ethanesulfonamide] the figure was 93%.
`CCS(=O)(=O)N[C@@H]1[C@H](Cc2cccc(-c3cccc(OC(F)F)c3)c2F)N(C(=O)C2(O)CCC2)CC1(F)F` [Example 552, N-[(2S,3R)-2-{[3′-(difluoromethoxy)-2-fluoro[1,1′-biphenyl]-3-yl]methyl}-4,4-difluoro-1-(1-hydroxycyclobutane-1-carbonyl)pyrrolidin-3-yl]ethanesulfonamide]: the “OX2R agonist activity (3 μM, %)” value is on record as 94%.
